Source: ChEMBL document CHEMBL1159181, “Short and unexpectedly potent difluorostatone type inhibitors of HIV-1 protease” (Bioorg Med Chem Lett, 1993)

Target: Human immunodeficiency virus type 1 protease (Human immunodeficiency virus 1, UniProt Q72874)
Assay: Tested for inhibitory activity against the recombinant HIV-1 protease

| SMILES | IC50 | Ki |
| --- | --- | --- |
| CC(C)(C)[C@H](NC(=O)OCc1ccccc1)C(=O)NC(Cc1ccccc1)C(=O)C(F)(F)C(=O)NCc1ccccc1 (stereo partly drawn) | 0.027 µM | – |
| CON[C@H](C(=O)N[C@H](C(=O)NC(=O)C(F)(F)C(=O)[C@H](Cc1ccccc1)NC(=O)[C@H](C)NC(=O)[C@H](C)NC(=O)[C@H](CO)NC(=O)OC(C)(C)C)C(C)C)C(C)C | – | 160 µM |
| CC(C)CC(NC(=O)OCc1ccccc1)C(=O)NC(Cc1ccccc1)C(=O)C(F)(F)C(=O)NCc1ccccc1 (stereo not drawn) | 750 µM | – |
| CC(C)(C)OC(=O)NC(Cc1ccc(O)cc1)C(=O)C(F)(F)C(=O)NCc1ccccc1 (stereo not drawn) | – | 0.0003 µM |
| CC(C)C(NC(=O)OCc1ccccc1)C(=O)NC(Cc1ccccc1)C(O)C(F)(F)C(=O)NCc1ccccc1 (stereo not drawn) | 5000 µM | – |
| O=C(Cc1ccccc1)NCC(F)(F)C(=O)C(Cc1ccccc1)NC(=O)OCc1ccccc1 (stereo not drawn) | – | 60000 µM |
| CC(C)C(NC(=O)OCc1ccccc1)C(=O)NC(Cc1ccccc1)C(=O)C(F)(F)C(=O)CCc1ccccc1 (stereo not drawn) | 0.1 µM | – |
| CN(Cc1ccccc1)C(=O)C(=O)C(=O)C(Cc1ccccc1)NC(=O)OCc1ccccc1 (stereo not drawn) | – | 5000 µM |
| O=C(NC(Cc1cccc2ccccc12)C(=O)C(F)(F)C(=O)NCc1ccccc1)OCc1ccccc1 (stereo not drawn) | – | > 1000 µM |
| NC(=O)C(F)(F)C(=O)C(Cc1ccccc1)NC(=O)OCc1ccccc1 (stereo not drawn) | 300 µM | – |
| CC(C)C(NC(=O)OCc1ccccc1)C(=O)NC(Cc1ccccc1)C(=O)C(F)(F)C(=O)NCc1ccccc1 (stereo not drawn) | – | 0.001 µM |
| C[Si](C)(C)CC(NC(=O)OCc1ccccc1)C(=O)C(F)(F)C(=O)NCc1ccccc1 (stereo not drawn) | – | 12 µM |
| C[Si](C)(C)CNC(=O)C(F)(F)C(=O)C(Cc1ccccc1)NC(=O)OCc1ccccc1 (stereo not drawn) | – | 0.6 µM |
| O=C(NC(Cc1ccccc1)C(=O)C(F)(F)C(=O)NCc1ccccc1)OCc1ccccc1 (stereo not drawn) | – | 0.0006 µM |
| CC(C)(C)OC(=O)NC(Cc1ccccc1)C(=O)C(F)(F)C(=O)NCc1ccccc1 (stereo not drawn) | 0.004 µM | – |
| CC(C)(C)OC(=O)NC(C[Si](C)(C)C)C(=O)C(F)(F)C(=O)NCc1ccccc1 (stereo not drawn) | – | 2.5 µM |
| CC(C)(C)CNC(=O)C(F)(F)C(=O)C(Cc1ccccc1)NC(=O)OCc1ccccc1 (stereo not drawn) | – | 0.65 µM |
| CCC[C@H](NC(=O)OCc1ccccc1)C(=O)NC(Cc1ccccc1)C(=O)C(F)(F)C(=O)NCc1ccccc1 (stereo partly drawn) | – | 400 µM |
